# Results reported in patent US8247382B2, “Method for increasing oxytocin release in the epidermis” (Shiseido Company, Ltd., priority 2008, dated 2012).
# Structures can show the parent of a compound that is named as a salt.
# Experiments:
# keratinocytes = conditions: added to keratinocytes; J. Clin. Invest. (1992) 90, 42-51; Biochem. J. (2004) 380, 329-338; cited from earlier work
# [1] = tested on: epidermal keratinocytes of human neonates; assay: Oxytocin release by differentiated keratinocytes after ATP gamma s addition (ELISA of culture medium); format: cell-based
# Protocol: The keratinocytes used herein were epidermal keratinocytes of human neonates up to a passage number of 4 (Kurabo Industries Ltd.). The culture medium was Defined Keratinocyte-SFM (Invitrogen Japan K.K.). The keratinocytes were grown to confluence in 10-cm dishes at 37° C. for several days with the culture medium replaced on alternate days, and then the calcium chloride concentration in the culture medium was increased to 1.8 mM thereby inducing differentiation. After a lapse of 45 hours, adenosine-5′-(3-thio)triphosphoric acid tetralithium salt (Sigma Co., hereinafter referred to as “ATP gamma s-Li”) was added to each dish so as to make the final concentrations of 0, 10, 30, 100, and 300 μM, and the incubation of culture was continued at 37° C. The culture medium was collected 10 minutes after the addition of ATP gamma s, and the amount of oxytocin was measured with the ELISA method.
# Oxytocin in the collected culture medium was purified and concentrated using a reversed phase column (C18 Sep-pak Light, Waters Co.), and eluted with an aqueous solution containing 60% acetonitrile and 0.1% trifluoroacetic acid. More specifically, the column eluate fraction containing oxytocin was freeze-dried, and dissolved again in a small amount of buffer solution (included in the EIA kit), and the oxytocin in the culture medium was concentrated at least 20 fold. Thereafter, the oxytocin concentration in the concentrated oxytocin solution was measured by the competitive ELISA method using Oxytocin EIA Kit (Assay Designs, Inc). The measurement procedure described in the instruction manual attached to the kit was followed. […] The absorbance of the color reaction by alkaline phosphatase was measured, and a semilogarithmic standard curve was generated by plotting the absorbance change due to the competitive inhibition against the known amount of oxytocin. The standard curve was used to determine the amount of oxytocin corresponding to the absorbance of the sample. […]
SMILES,Ca2+ concentration in the keratinocytes (keratinocytes),"change of oxytocin concentration in the culture media with ATP gamma s concentration ([1]; 0, 10, 30, 100, 300 μM ATP gamma s, 10 minutes, no EGTA)","oxytocin concentration in the culture medium ([1]; 300 μM ATP gamma s, medium collected 10 minutes after addition, 37° C., ELISA)",effect of EGTA on the increase of oxytocin concentration with increases of ATP gamma s ([1]; 2 mM EGTA added 5 minutes before ATP gamma s)
Nc1ncnc2c1ncn2[C@@H]1O[C@H](COP(=O)(O)OP(=O)(O)OP(=O)(O)O)[C@@H](O)[C@H]1O [ATP],increase the Ca^2+ concentration in the keratinocytes in a concentration-dependent manner,,,
"Nc1ncnc2c1ncn2[C@@H]1O[C@H](COP(=O)(O)OP(=O)(O)OP(O)(O)=S)[C@@H](O)[C@H]1O [ATP gamma s, adenosine-5′-(3-thio)triphosphoric acid tetralithium salt]",increase the Ca^2+ concentration in the keratinocytes in a concentration-dependent manner,increased with increases of ATP gamma s,exceeded 7 pg/mL,
"O=C(O)CN(CCOCCOCCN(CC(=O)O)CC(=O)O)CC(=O)O [EGTA, ethylene glycol bis(2-aminoethyl ether) tetraacetic acid]",,,,inhibited
